Experimental data reported in US10167262B2, “Herbicidal substituted 3-arylpyrazoles” (FMC CORPORATION, priority 2014, dated 2019).

Columns and labels:
Experiment in all cases: Test C postemergence greenhouse test, plant response rating 0-100
Assay type in all cases: in vivo
[1] = test system: bermudagrass (Cynodon dactylon)
Outline: (§1)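 First, plants were raised in a sphagnum peat, vermiculite and nutrient medium to 1–4 leaves. Next, formulated test compounds were applied over the foliage. Finally, after 13–15 greenhouse days, injury was compared with controls and scored 0–100.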

[2] = test system: canarygrass (Phalaris minor)
Outline: as §1

[3] = test system: cocklebur (common cocklebur, Xanthium strumarium)
Outline: as §1

[4] = test system: deadnettle (henbit deadnettle, Lamium amplexicaule)
Outline: as §1

[5] = test system: downy bromegrass (Bromus tectorum)
Outline: as §1

[6] = test system: goosegrass (Eleusine indica)
Outline: as §1

[7] = test system: green foxtail (Setaria viridis)
Outline: as §1

[8] = test system: surinam grass (Brachiaria decumbens)
Outline: as §1

[9] = test system: windgrass (Apera spica-venti)
Outline: as §1

[10] = test system: winter barley (Hordeum vulgare)
Outline: as §1

[11] = test system: woolly cupgrass (Eriochloa villosa)
Outline: as §1

In the case of `CCn1cc(C(=O)c2ccccc2)c(-c2cc(Cl)cc(Cl)c2)n1` [Compound 31, [3-(3,5-dichlorophenyl)-1-ethyl-1H-pyrazol-4-yl]phenylmethanone], the “Plant response rating, Bermudagrass” value ([1]; 16 g ai/ha) is reported as 0, the “Plant response rating (0 to 100), Bermudagrass” value ([1]; 31 g ai/ha) is reported as 0 and the “Plant response rating (0 to 100), Bermudagrass” value ([1]; 62 g ai/ha) is reported as 0. For the same compound, the “Plant response rating (0 to 100), Bermudagrass” value ([1]; 125 g ai/ha) was 0, the “Plant response rating, Canarygrass” value ([2]; 16 g ai/ha) was 0 and the “Plant response rating (0 to 100), Canarygrass” value ([2]; 31 g ai/ha) was 0. The “Plant response rating (0 to 100), Canarygrass” value ([2]; 62 g ai/ha) was 0, the “Plant response rating (0 to 100), Canarygrass” value ([2]; 125 g ai/ha) was 0 and the “Plant response rating, Cocklebur” value ([3]; 16 g ai/ha) was 10. The “Plant response rating (0 to 100), Cocklebur” value ([3]; 31 g ai/ha) was 20, the “Plant response rating (0 to 100), Cocklebur” value ([3]; 62 g ai/ha) was 20 and the “Plant response rating (0 to 100), Cocklebur” value ([3]; 125 g ai/ha) was 25. The “Plant response rating, Deadnettle” value ([4]; 16 g ai/ha) was 0, the “Plant response rating (0 to 100), Deadnettle” value ([4]; 31 g ai/ha) was 0 and the “Plant response rating (0 to 100), Deadnettle” value ([4]; 62 g ai/ha) was 0. For the same compound, the “Plant response rating (0 to 100), Deadnettle” value ([4]; 125 g ai/ha) was 10, the “Plant response rating, Bromegrass, Downy” value ([5]; 16 g ai/ha) was 0 and the “Plant response rating (0 to 100), Bromegrass, Downy” value ([5]; 31 g ai/ha) was 0. The “Plant response rating (0 to 100), Bromegrass, Downy” value ([5]; 62 g ai/ha) was 0, the “Plant response rating (0 to 100), Bromegrass, Downy” value ([5]; 125 g ai/ha) was 0 and the “Plant response rating, Goosegrass” value ([6]; 16 g ai/ha) was 0. The “Plant response rating (0 to 100), Goosegrass” value ([6]; 31 g ai/ha) was 0, the “Plant response rating (0 to 100), Goosegrass” value ([6]; 62 g ai/ha) was 0 and the “Plant response rating (0 to 100), Goosegrass” value ([6]; 125 g ai/ha) was 0. The “Plant response rating, Foxtail, Green” value ([7]; 16 g ai/ha) was 0, the “Plant response rating (0 to 100), Foxtail, Green” value ([7]; 31 g ai/ha) was 0 and the “Plant response rating (0 to 100), Foxtail, Green” value ([7]; 62 g ai/ha) was 0. For the same compound, the “Plant response rating (0 to 100), Foxtail, Green” value ([7]; 125 g ai/ha) was 0, the “Plant response rating, Surinam Grass” value ([8]; 16 g ai/ha) was 5 and the “Plant response rating (0 to 100), Surinam Grass” value ([8]; 62 g ai/ha) was 5. The “Plant response rating (0 to 100), Surinam Grass” value ([8]; 125 g ai/ha) was 5, the “Plant response rating, Windgrass” value ([9]; 16 g ai/ha) was 0 and the “Plant response rating (0 to 100), Windgrass” value ([9]; 62 g ai/ha) was 0. The “Plant response rating (0 to 100), Windgrass” value ([9]; 125 g ai/ha) was 0, the “Plant response rating, Barley” value ([10]; 16 g ai/ha) was 0 and the “Plant response rating (0 to 100), Barley” value ([10]; 31 g ai/ha) was 0. The “Plant response rating (0 to 100), Barley” value ([10]; 62 g ai/ha) was 0, the “Plant response rating (0 to 100), Barley” value ([10]; 125 g ai/ha) was 0 and the “Plant response rating, Cupgrass, Woolly” value ([11]; 16 g ai/ha) was 5. The “Plant response rating (0 to 100), Cupgrass, Woolly” value ([11]; 31 g ai/ha) was 5, the “Plant response rating (0 to 100), Cupgrass, Woolly” value ([11]; 62 g ai/ha) was 5 and the “Plant response rating (0 to 100), Cupgrass, Woolly” value ([11]; 125 g ai/ha) was 5.
With `Cn1cc(C(=O)c2ccccc2)c(-c2cc(Br)cc(Br)c2)n1` [Compound 53] the “Plant response rating (0 to 100), Bermudagrass” value ([1]; 62 g ai/ha) was 5, the “Plant response rating (0 to 100), Bermudagrass” value ([1]; 125 g ai/ha) was 5 and the “Plant response rating, Bermudagrass” value ([1]; 250 g ai/ha, scale 0 to 100) was 5. For the same compound, the “Plant response rating, Bermudagrass” value ([1]; 500 g ai/ha, scale 0 to 100) was 5, the “Plant response rating (0 to 100), Canarygrass” value ([2]; 62 g ai/ha) was 0 and the “Plant response rating (0 to 100), Canarygrass” value ([2]; 125 g ai/ha) was 0. For the same compound, the “Plant response rating, Canarygrass” value ([2]; 250 g ai/ha, scale 0 to 100) was 0, the “Plant response rating, Canarygrass” value ([2]; 500 g ai/ha, scale 0 to 100) was 0 and the “Plant response rating (0 to 100), Cocklebur” value ([3]; 62 g ai/ha) was 5. The “Plant response rating (0 to 100), Cocklebur” value ([3]; 125 g ai/ha) was 10, the “Plant response rating, Cocklebur” value ([3]; 250 g ai/ha, scale 0 to 100) was 10 and the “Plant response rating, Cocklebur” value ([3]; 500 g ai/ha, scale 0 to 100) was 15. For the same compound, the “Plant response rating (0 to 100), Deadnettle” value ([4]; 62 g ai/ha) was 0, the “Plant response rating (0 to 100), Deadnettle” value ([4]; 125 g ai/ha) was 0 and the “Plant response rating, Deadnettle” value ([4]; 250 g ai/ha, scale 0 to 100) was 0. The “Plant response rating, Deadnettle” value ([4]; 500 g ai/ha, scale 0 to 100) was 0, the “Plant response rating (0 to 100), Bromegrass, Downy” value ([5]; 62 g ai/ha) was 0 and the “Plant response rating (0 to 100), Bromegrass, Downy” value ([5]; 125 g ai/ha) was 0. The “Plant response rating, Bromegrass, Downy” value ([5]; 250 g ai/ha, scale 0 to 100) was 0, the “Plant response rating, Bromegrass, Downy” value ([5]; 500 g ai/ha, scale 0 to 100) was 0 and the “Plant response rating (0 to 100), Goosegrass” value ([6]; 62 g ai/ha) was 5. For the same compound, the “Plant response rating (0 to 100), Goosegrass” value ([6]; 125 g ai/ha) was 5, the “Plant response rating, Goosegrass” value ([6]; 250 g ai/ha, scale 0 to 100) was 5 and the “Plant response rating, Goosegrass” value ([6]; 500 g ai/ha, scale 0 to 100) was 5. The “Plant response rating (0 to 100), Foxtail, Green” value ([7]; 62 g ai/ha) was 0, the “Plant response rating (0 to 100), Foxtail, Green” value ([7]; 125 g ai/ha) was 0 and the “Plant response rating, Foxtail, Green” value ([7]; 250 g ai/ha, scale 0 to 100) was 0. The “Plant response rating, Foxtail, Green” value ([7]; 500 g ai/ha, scale 0 to 100) was 0, the “Plant response rating (0 to 100), Surinam Grass” value ([8]; 62 g ai/ha) was 0 and the “Plant response rating (0 to 100), Surinam Grass” value ([8]; 125 g ai/ha) was 0. The “Plant response rating, Surinam Grass” value ([8]; 250 g ai/ha, scale 0 to 100) was 0, the “Plant response rating, Surinam Grass” value ([8]; 500 g ai/ha, scale 0 to 100) was 0 and the “Plant response rating (0 to 100), Windgrass” value ([9]; 62 g ai/ha) was 0. For the same compound, the “Plant response rating (0 to 100), Windgrass” value ([9]; 125 g ai/ha) was 0, the “Plant response rating, Windgrass” value ([9]; 250 g ai/ha, scale 0 to 100) was 0 and the “Plant response rating, Windgrass” value ([9]; 500 g ai/ha, scale 0 to 100) was 0. The “Plant response rating (0 to 100), Barley” value ([10]; 62 g ai/ha) was 0, the “Plant response rating (0 to 100), Barley” value ([10]; 125 g ai/ha) was 0 and the “Plant response rating, Barley” value ([10]; 250 g ai/ha, scale 0 to 100) was 0. The “Plant response rating, Barley” value ([10]; 500 g ai/ha, scale 0 to 100) was 0, the “Plant response rating (0 to 100), Cupgrass, Woolly” value ([11]; 62 g ai/ha) was 5 and the “Plant response rating (0 to 100), Cupgrass, Woolly” value ([11]; 125 g ai/ha) was 5. The “Plant response rating, Cupgrass, Woolly” value ([11]; 250 g ai/ha, scale 0 to 100) was 5 and the “Plant response rating, Cupgrass, Woolly” value ([11]; 500 g ai/ha, scale 0 to 100) was 5.
